From ChEMBL document CHEMBL1151153, “Chemistry of Sponges, VII. 11,19-Dideoxyfistularin 3 and 11-Hydroxyaerothionin, Bromotyrosine Derivatives from Pseudoceratina durissima” (J Nat Prod, 1990)
Active and inactive are the calls of the source.

Tests used:
Type in all cases: functional, organism-based
[1] = tested on: Staphylococcus aureus; assay: Antimicrobial activity against Staphylococcus aureus at 100 ug/disk
[2] = tested on: Bacillus subtilis; assay: Antimicrobial activity against Bacillus subtilis at 50 ug/disk
[3] = tested on: Candida albicans; assay: Antimicrobial activity against Candida albicans at 50 ug/disk
[4] = tested on: Staphylococcus aureus; assay: Antimicrobial activity against Staphylococcus aureus at 25 ug/disk
[5] = tested on: Bacillus subtilis; assay: Antimicrobial activity against Bacillus subtilis at 10 ug/disk
[6] = tested on: Candida albicans; assay: Antimicrobial activity against Candida albicans at 25 ug/disk

Measured: Activity

COC1=C(Br)[C@H](O)[C@@]2(C=C1Br)CC(C(=O)NCCCCCNC(=O)C1=NO[C@]3(C=C(Br)C(OC)=C(Br)[C@@H]3O)C1)=NO2
active: [1] | [2] | [3]

COC1=C(Br)[C@@H](O)[C@]2(C=C1Br)CC(C(=O)NCCC(O)CNC(=O)C1=NO[C@]3(C=C(Br)C(OC)=C(Br)[C@@H]3O)C1)=NO2 (some centres not stated)
active: [1] | [2] | [3]

COC1=C(Br)[C@H](O)[C@@]2(C=C1Br)CC(C(=O)NCCCCNC(=O)C1=NO[C@]3(C=C(Br)C(OC)=C(Br)[C@@H]3O)C1)=NO2
active: [1] | [2] | [3]

COC1=C(Br)[C@@H](O)[C@]2(C=C1Br)CC(C(=O)NCCc1cc(Br)c(OCCCNC(=O)C3=NO[C@]4(C=C(Br)C(OC)=C(Br)[C@@H]4O)C3)c(Br)c1)=NO2
active: [4] | [5] | [6]
